According to US20260327211A1, “MODULATORS OF A POTASSIUM CHANNEL AND OF TRPV1 CHANNEL AND USES THEREOF” (Bsense Bio Therapeutics Ltd., priority 2023, published 2026):
Where two headings read alike, the source gives them in different places.

Experiments:
[1] = Rat pharmacokinetics; format: in vivo; details: for clearance: read-out: PK: Cl; for bioavailability: po, 10 mg/kg; for half-life: read-out: PK: T1/2 (converted)
Protocol: The pharmacokinetic (PK) properties of test compound following single intravenous (IV) bolus and oral gavage (PO) administration in male Sprague-Dawley (SD) rats were determined in this study.
Test compound administration: Six male Sprague Dawley (SD) rats were divided into two designated groups, Group 1 and Group 2, each composed of three rat subjects. Group 1 animals were subjected to a single intravenous bolus administration of the test compound at a dosage of 1 mg/kg. Group 2 animals were administered with the test compound orally in a single dose, at a concentration of 10 mg/kg. Throughout the study, the animals had unhindered access to food. The test compound was administered at a concentration of 0.5 mg/mL and dose volume of 2 mL/kg for Group 1, and at a concentration of 1 mg/mL and dose volume of 10 mL/kg, for Group 2.
Sample extraction and analysis: Plasma samples were systematically collected at varying time points of 0.083 (only for Group 1), 0.25, 0.5, 1, 2, 4-, 6-, 8-, and 24-hours post-dose. LC-MS/MS was used to determine the test compound's concentration within the collected plasma samples. Data reflecting plasma concentration in correlation to time were graphically represented and subjected to a non-compartmental analysis using the Phoenix WinNonlin 6.3 software program. The resulting pharmacokinetic parameters, including Clearance (Cl), Volume of distribution at steady state (Vdss) and initial concentration (C0) for intravenous administration; peak concentration (Cmax), time of peak concentration (Tmax), and bioavailability (% F) for extravascular administration; and half-life (T1/2), Area Under Curve from time zero to time t (AUC(0-t)), Area Under Curve from time zero to infinity (AUC(0-inf)), Mean Residence Time from time zero to time t (MRT(0-t)), Mean Residence Time from time zero to infinity (MRT(0-inf)) for all routes, were systematically calculated.

[2] = Bidirectional permeability in Caco-2 cells; format: in vitro ADME, human
Protocol: Cell culture: Caco-2 cells (ATCC) were seeded onto polycarbonate (PC) membranes in 96-well insert plates. The cells were cultured in media for 21-28 days prior to performing the transport assays.
Validation of monolayer integrity: Once the Caco-2 cells formed a confluent monolayer, their integrity was evaluated using a Lucifer yellow rejection assay. The monolayer integrity was further evaluated by measuring, in duplicate wells, the unidirectional (A→B) permeability of nadolol (a low permeability marker) and metoprolol (a high permeability marker), as well as bidirectional permeability of digoxin (a P-glycoprotein substrate marker).
Assay: The compounds were assayed under bidirectional transport conditions (A→B and B→A) at a concentration of 2.00 μM (with DMSO≤1.0%), using a transport buffer composed of HBSS containing 10.0 mM HEPES, pH 7.40±0.05. The incubation was carried out at 37° C., with 5.0% CO2 and relatively saturated humidity for 2 hours.
The dosing solution was spiked and mixed with the transport buffer and a Stop Solution (containing an internal standard (IS)) to create a T0 sample.
Sample analysis: Following the incubation, all of the samples were analyzed using LC-MS/MS. The concentrations of the test compounds were expressed as peak area ratios of the analytes versus the IS.

[3] = HepG2 toxicity, ATPlite; format: cell-based, human; details: human, hepg2 cells; 48 hours; read-out: HepG2 Toxicity LD50
Protocol: Cell culture: HepG2 cell-line cells were cultured in EMEM (ATCC 30-2033) medium supplemented with 10% fetal bovine serum (Biological Industries) in a humidified 5% CO2 incubator at 37° C.
ATPlite™ 1step Kit: ATPlite™ 1step kit (PerkinElmer) was used in a 384-wells format to assess potential liver toxicity using HepG2 cells. This is an ATP detection system based on firefly luciferase luminescence for the quantitative evaluation of proliferation and cytotoxicity of cells. ATP is a marker for cell viability because it is present in all metabolically active cells and its concentration declines very rapidly when the cells undergo necrosis or apoptosis.
According to an optimization process done to achieve uniform and consistent screening condition of molecules, the following protocol was established: Cells were seeded in 384-well, black-walled, clear-bottomed, at a density of 4000 cells per well […] and incubated overnight in their normal growth medium. On day two (48 hours before viability measurement), the tested compounds and the positive control were applied to the wells according to the plate design. […] 48 hours later, reconstituted lyophilized substrate solution was added to each well and the sealed 384-well microplate was mixed for 2 minutes at 1100 rpm in an orbital microplate and plates were incubated for 10 minutes in the dark at room temperature. Right after, luminescence was measured in the Tecan plate reader. To estimate the LD50 and LD25 values the data was fitted to sigmoidal regression using Prism-GraphPad. […]

[4] = rat, plasma, read-out: PK: Oral BA

Question: For `O=C(Cc1cc(-n2cc(C(F)(F)F)c3cc(Cl)cc(Cl)c32)ncn1)NCCO` [Compound 843], which clearance ([1]; rat, plasma, iv, 1 mg/kg) is on record?
Answer: 6.6 mL/min/kg

Question: What about the bioavailability [1, 4] of the same compound?
Answer: 73.4%

Question: For `O=C(Cc1nccc(-n2cc(Cl)c3cc(Cl)cc(Cl)c32)n1)NC1COCC1O` (stereo not drawn) [Compound 760], which “Caco-2 AB” value [2] is on record?
Answer: 7.6

Question: And the clearance ([1]; rat, plasma, iv, 1 mg/kg)?
Answer: 60.1 mL/min/kg

Question: What about the Vd ([1]; rat, plasma, iv, 1 mg/kg, read-out: Volume of distribution at steady state (Vdss)) of the same compound?
Answer: 2.37 L/kg

Question: What about the bioavailability ([1]; rat, plasma, read-out: Oral bioavailability) of the same compound?
Answer: 48.6%

Question: And the half-life ([1]; rat, plasma)?
Answer: 2.68 h

Question: Which results are given for `O=C(Cc1cncc(-n2cc(Cl)c3cc(Cl)cc(Cl)c32)c1)N[C@@H]1COC[C@H]1O` [Compound 661]?
Answer: Caco-2 AB [2]: 1.78; CC50 at 48 h [3]: > 16.6 µM; Multiple of free plasma exposure over IC50 (rat DRG) ([1]; 10 mg/kg oral): 30 fold; Free plasma exposure, fu plasma C8 hour ([1]; 10 mg/kg oral, 8 hours): 0.09 nM; Dose from which efficacious levels are expected ([1]; oral, extrapolated from 10 mg/kg): 2 mg/kg; clearance ([1]; rat, plasma, iv, 1 mg/kg): 35.7 mL/min/kg; bioavailability [1, 4]: 28.8%; half-life ([1]; rat, plasma): 2.49 h

Question: For `O=C(Cc1ccnc(-n2cc(Cl)c3cc(Cl)cc(Cl)c32)n1)N[C@@H]1COC[C@H]1O` [Compound 820], which “Caco-2 Efflux ratio” value ([2]; 2.00 μM, 120 min) is on record?
Answer: 2.49

Question: And the efflux ratio at 2 h, 2 µM ([2]; human, Caco-2, pH 7.4, 2.00 μM)?
Answer: < 3

Question: With `Cc1cn(-c2ccc(F)c(CC(=O)NCC(C)(C)O)c2)c2c(Cl)cc(Cl)cc12` [Compound 421] as the compound, how does the CC50 at 48 h [3] read?
Answer: > 1 µM

Question: And the clearance ([1]; rat, plasma, iv, 1 mg/kg)?
Answer: 38.5 mL/min/kg

Question: What about the bioavailability [1, 4] of the same compound?
Answer: 10.6%

Question: With `O=C(Cc1cc(-n2cc(Cl)c3cc(Cl)cc(Cl)c32)ccc1F)NCCO` [Compound 627] as the compound, how does the CC50 at 48 h [3] read?
Answer: 3.37 µM

Question: And the clearance ([1]; rat, plasma, iv, 1 mg/kg)?
Answer: 65.8 mL/min/kg

Question: What about the bioavailability [1, 4] of the same compound?
Answer: 25.3%

Question: What about the half-life ([1]; rat, plasma) of the same compound?
Answer: 1.48 h
